Experimental data: US8772480B2, “Inhibitors of PI3 kinase and/or mTOR” (priority 2009, dated 2014)
pIC50: −log10 of the molar value.

tested on: phosphorylation of Akt at Serine 473 in U87 MG cells; test: cells; conditions: Homo sapiens, U-87 MG, 2 h, read-out: U87Cell IC50

SMILES | pIC50
COc1ccc(NCc2cnc(Nc3ccc(OC)nc3)c(-c3nc(C)nc4[nH]cnc34)c2)cc1 [Example 77, 5-((4-methoxyphenylamino)methyl)-N-(6-methoxypyridin-3-yl)-3-(2-methyl-9H-purin-6-yl)pyridin-2-amine] | 6.78
Cc1nc(N)nc(-c2cccnc2Nc2cnc(Cl)c(N)c2)n1 [Example 265, N5-(3-(4-Amino-6-Methyl-1,3,5-Triazin-2-yl)Pyridin-2-yl)-2-Chloropyridine-3,5-Diamine] | 6.46
Cc1nc(N)nc(-c2cccnc2Nc2cnc(Cl)c(NS(=O)(=O)N3CCOCC3)c2)n1 [Example 366, N-(5-(3-(4-Amino-6-Methyl-1,3,5-Triazin-2-yl)Pyridin-2-Ylamino)-2-Chloropyridin-3-yl)Morpholine-4-Sulfonamide] | 7.40
Cc1nc(N)nc(-c2cccnc2Nc2cnc(Cl)c(NS(=O)(=O)N(C)C(C)C)c2)n1 [Example 367, N-(5-(3-(4-Amino-6-Methyl-1,3,5-Triazin-2-yl)Pyridin-2-Ylamino)-2-Chloropyridin-3-yl)-N-Isopropyl-N-Methylaminosulfamide] | 6.61

same assay, conditions: Homo sapiens, U-87 MG, 2 h, read-out: U87Cell IC50, pAkt (Ser 473), U87 MG cells, two hours with compound

SMILES | pIC50
CCOc1ccc(Nc2ncccc2-c2nc(C)nc(N)n2)cn1 [Example 49, 4-(2-(6-ethoxypyridin-3-ylamino)pyridin-3-yl)-6-methyl-1,3,5-triazin-2-amine] | 5.94
COc1cccc(NCc2cnc(Nc3ccc(OC)nc3)c(-c3nc(C)nc4[nH]cnc34)c2)c1 [Example 78, 5-((3-methoxyphenylamino)methyl)-N-(6-methoxypyridin-3-yl)-3-(2-methyl-9H-purin-6-yl)pyridin-2-amine] | 6.32
COc1ccc(Nc2ncc(CNc3cccnc3)cc2-c2nc(C)nc3[nH]cnc23)cn1 [Example 79, N-(6-methoxypyridin-3-yl)-3-(2-methyl-9H-purin-6-yl)-5-((pyridin-3-ylamino)methyl)pyridin-2-amine] | 7.14
COc1cccc(Nc2cnc(Nc3ccc(OC)nc3)c(-c3nc(C)nc4[nH]cnc34)c2)c1 [Example 96, N5-(3-methoxyphenyl)-N2-(6-methoxypyridin-3-yl)-3-(2-methyl-9H-purin-6-yl)pyridine-2,5-diamine] | 6.39
CC(=O)Nc1ccc(Nc2ncccc2-c2nc(C)nc3[nH]cnc23)cc1 [Example 102, N-(4-(3-(2-methyl-9H-purin-6-yl)pyridin-2-ylamino)phenyl)acetamide] | 7.06
Cc1nc(-c2cc(Cc3ccc(S(C)(=O)=O)cc3)cnc2Nc2cccc3[nH]ncc23)c2nc[nH]c2n1 [Example 104, N-(3-(2-methyl-9H-purin-6-yl)-5-(4-(methylsulfonyl)benzyl)pyridin-2-yl)-1H-indazol-4-amine] | 6.89
CC(=O)Nc1ccc(Nc2ncc(Cc3ccc(S(C)(=O)=O)cc3)cc2-c2nc(C)nc3[nH]cnc23)cn1 [Example 105, N-(5-(3-(2-methyl-9H-purin-6-yl)-5-(4-(methylsulfonyl)benzyl)pyridin-2-ylamino)pyridin-2-yl)acetamide] | 6.80
CC(=O)Nc1cc(-c2cnccc2Nc2cccc3[nH]ccc23)nc(C)n1 [Example 108, N-(6-(4-(1H-indol-4-ylamino)pyridin-3-yl)-2-methylpyrimidin-4-yl)acetamide] | 5.92
COc1ccc(Nc2nc(-c3ccncc3)ncc2-c2nc(C)nc(N)n2)cn1 [Example 124, 4-(4-(6-methoxypyridin-3-ylamino)-2-(pyridin-4-yl)pyrimidin-5-yl)-6-methyl-1,3,5-triazin-2-amine] | < 5.00
COc1ccc(Nc2nc(NC3CCCC3)ncc2-c2nc(C)nc(N)n2)cn1 [Example 126, 5-(4-amino-6-methyl-1,3,5-triazin-2-yl)-N2-cyclopentyl-N4-(6-methoxypyridin-3-yl)pyrimidine-2,4-diamine] | 6.62
COc1ccc(Nc2ncc(Cl)cc2-c2nc(C)nc3[nH]cnc23)cn1 [Example 127, 5-chloro-N-(6-methoxypyridin-3-yl)-3-(2-methyl-9H-purin-6-yl)pyridin-2-amine] | 6.60
COc1ncc(Nc2ncc(C(C)N3CCN(S(C)(=O)=O)CC3)cc2-c2nc(C)nc(N)n2)cc1F (centres unmarked) [Example 143, 4-(2-(5-fluoro-6-methoxypyridin-3-ylamino)-5-(1-(4-(methylsulfonyl)piperazin-1-yl)ethyl)pyridin-3-yl)-6-methyl-1,3,5-triazin-2-amine] | 8.22
COc1ncc(Nc2ncc([C@@H](C)N3CCN(S(C)(=O)=O)CC3)cc2-c2nc(C)nc(N)n2)cc1F [Example 148, (R)-4-(2-(5-Fluoro-6-Methoxypyridin-3-Ylamino)-5-(1-(4-(Methylsulfonyl)Piperazin-1-yl)Ethyl)Pyridin-3-yl)-6-Methyl-1,3,5-Triazin-2-Amine] | 8.30
COc1ncc(Nc2ncc(C(=O)N3CCN(S(C)(=O)=O)CC3)cc2-c2nc(C)nc(N)n2)cc1F [Example 152, 4-(2-((5-Fluoro-6-Methoxy-3-Pyridinyl)Amino)-5-((4-(Methylsulfonyl)-1-Piperazinyl)Carbonyl)-3-Pyridinyl)-6-Methyl-1,3,5-Triazin-2-Amine] | 7.43
Cc1nc(N)nc(-c2cccnc2Nc2ccc3oc(C)nc3c2)n1 [Example 165, N-(3-(4-Amino-6-Methyl-1,3,5-Triazin-2-yl)Pyridin-2-yl)-2-Methylbenzo[D]Oxazol-5-Amine] | 5.59
COc1cc(Nc2ncccc2-c2nc(C)nc(N)n2)ccc1F [Example 167, 4-(2-(4-Fluoro-3-Methoxyphenylamino)Pyridin-3-yl)-6-Methyl-1,3,5-Triazin-2-Amine] | 5.93

SMILES | pIC50
Cc1nc(-c2cccnc2Nc2ccc(NC(=O)C3CC3)cc2)c2nc[nH]c2n1 [Example 182, N-(4-(3-(2-Methyl-9H-Purin-6-yl)Pyridin-2-Ylamino)Phenyl)Cyclopropanecarboxamide] | 7.04
COc1ncc(Nc2ncc(F)cc2-c2nc(C)nc(N)n2)cc1F [Example 185, 4-(5-Fluoro-2-(5-Fluoro-6-Methoxypyridin-3-Ylamino)Pyridin-3-yl)-6-Methyl-1,3,5-Triazin-2-Amine] | 6.70
Cc1nc(N)nc(-c2cccnc2Nc2ccc(NC(=O)Nc3ccccc3)nc2)n1 [Example 190, 1-(5-(3-(4-Amino-6-Methyl-1,3,5-Triazin-2-yl)Pyridin-2-Ylamino)Pyridin-2-yl)-3-Phenylurea] | 6.05
Cc1nc(N)nc(-c2cccnc2Nc2ccc(NC(=O)Nc3cccc(F)c3)nc2)n1 [Example 191, 1-(5-(3-(4-Amino-6-Methyl-1,3,5-Triazin-2-yl)Pyridin-2-Ylamino)Pyridin-2-yl)-3-(3-Fluorophenyl)Urea] | 5.67
CC(=O)Nc1ccc(Nc2ncc(Cl)cc2-c2nc(C)nc(N)n2)cn1 [Example 193, N-(5-(3-(4-Amino-6-Methyl-1,3,5-Triazin-2-yl)-5-Chloropyridin-2-Ylamino)Pyridin-2-yl)Acetamide] | 7.00
COC(=O)Nc1ccc(Nc2ncc(Cl)cc2-c2nc(C)nc(N)n2)cn1 [Example 194, Methyl 5-(3-(4-Amino-6-Methyl-1,3,5-Triazin-2-yl)-5-Chloropyridin-2-Ylamino)Pyridin-2-Ylcarbamate] | < 5.00
Cc1nc(N)nc(-c2cc(CN3CCN(S(C)(=O)=O)CC3)cnc2Nc2cc(F)cc3[nH]ncc23)n1 [Example 245, N-(3-(4-Amino-6-Methyl-1,3,5-Triazin-2-yl)-5-((4-(Methylsulfonyl)Piperazin-1-yl)Methyl)Pyridin-2-yl)-6-Fluoro-1H-Indazol-4-Amine] | 7.72
COc1ncc(Nc2ncc(C(C)(C)N3CCN(S(C)(=O)=O)CC3)cc2-c2nc(C)nc(N)n2)cc1F [Example 280, 4-(2-(5-Fluoro-6-Methoxypyridin-3-Ylamino)-5-(2-(4-(Methylsulfonyl)Piperazin-1-yl)Propan-2-yl)Pyridin-3-yl)-6-Methyl-1,3,5-Triazin-2-Amine] | 7.85
COc1ncc(Nc2ncc(C(N3CCN(S(C)(=O)=O)CC3)C(F)(F)F)cc2-c2nc(C)nc(N)n2)cc1F (centres unmarked) [Example 325, 4-(2-(5-Fluoro-6-Methoxypyridin-3-Ylamino)-5-(2,2,2-Trifluoro-1-(4-(Methylsulfonyl)Piperazin-1-yl)Ethyl)Pyridin-3-yl)-6-Methyl-1,3,5-Triazin-2-Amine] | 7.59
Cc1nc(N)nc(-c2cc(C3CCOCC3)cnc2Nc2cnc(Cl)c(NS(C)(=O)=O)c2)n1 [Example 328, N-(5-(3-(4-Amino-6-Methyl-1,3,5-Triazin-2-yl)-5-(Tetrahydro-2H-Pyran-4-yl)Pyridin-2-Ylamino)-2-Chloropyridin-3-yl)Methanesulfonamide] | 9.00
COc1ncc(Nc2ncc(C3=CCOCC3)cc2-c2nc(C)nc(N)n2)cc1F [Example 343, 4-(5-(3,6-Dihydro-2H-Pyran-4-yl)-2-(5-Fluoro-6-Methoxypyridin-3-Ylamino)Pyridin-3-yl)-6-Methyl-1,3,5-Triazin-2-Amine] | 7.82
Cc1nc(N)nc(-c2cc(C(C)(C)O)cnc2Nc2cncc(S(C)(=O)=O)c2)n1 [Example 355, 2-(5-(4-Amino-6-Methyl-1,3,5-Triazin-2-yl)-6-(5-(Methylsulfonyl)Pyridin-3-Ylamino)Pyridin-3-yl)Propan-2-ol] | 5.94
COc1ncc(Nc2ncc([C@@H](C)N3CCN(S(C)(=O)=O)C[C@H]3C)cc2-c2nc(C)nc(N)n2)cc1F [Example 360, 4-(2-(5-Fluoro-6-Methoxypyridin-3-Ylamino)-5-((R)-1-((R)-2-Methyl-4-(Methylsulfonyl)Piperazin-1-yl)Ethyl)Pyridin-3-yl)-6-Methyl-1,3,5-Triazin-2-Amine] | 7.92
Cc1nc(N)cc(-c2cc(C(C)N3CCOCC3)cnc2Nc2cnc(Cl)c(NS(=O)(=O)N(C)C)c2)n1 (centres unmarked) [Example 379, N-(2-Chloro-5-(3-(6-Amino-2-Methylpyrimidin-4-yl)-5-(1-Morpholinoethyl)Pyridin-2-Ylamino)Pyridin-3-yl)-N,N-Dimethylaminosulfamide] | 7.34
Cc1nc(N)cc(-c2cc([C@@H](C)N3CCOCC3)cnc2Nc2cnc(Cl)c(NS(=O)(=O)N(C)C)c2)n1 [Example 381, (R)—N-(2-Chloro-5-(3-(6-Amino-2-Methylpyrimidin-4-yl)-5-(1-Morpholinoethyl)Pyridin-2-Ylamino)Pyridin-3-yl)-N,N-Dimethylaminosulfamide] | 7.40
